Experimental data from ChEMBL document CHEMBL5233222, “Bridging free radical chemistry with drug discovery: A promising way for finding novel drugs efficiently” (Eur J Med Chem, 2020).

Test: Inhibition of AAPH-induced hemolysis of human erythrocytes
Type: functional, cell-based
Conditions: erythrocyte

SMILES	IC50
CC(C)=CCC[C@](C)(O[C@@H]1O[C@H](CO[C@@H]2O[C@H](CO)[C@@H](O)[C@H](O)[C@H]2O)[C@@H](O)[C@H](O)[C@H]1O)[C@H]1CC[C@]2(C)[C@@H]1[C@H](O)C[C@@H]1[C@@]3(C)CC[C@H](O[C@@H]4O[C@H](CO)[C@@H](O)[C@H](O)[C@H]4O[C@@H]4O[C@H](CO)[C@@H](O)[C@H](O)[C@H]4O)C(C)(C)[C@@H]3CC[C@]12C [GINSENOSIDE RB1]	3180 nM
CC(C)=CCC[C@](C)(O[C@@H]1O[C@H](CO[C@@H]2OC[C@@H](O)[C@H](O)[C@H]2O)[C@@H](O)[C@H](O)[C@H]1O)[C@H]1CC[C@]2(C)[C@@H]1[C@H](O)C[C@@H]1[C@@]3(C)CC[C@H](O[C@@H]4O[C@H](CO)[C@@H](O)[C@H](O)[C@H]4O[C@@H]4O[C@H](CO)[C@@H](O)[C@H](O)[C@H]4O)C(C)(C)[C@@H]3CC[C@]12C [GINSENOSIDE RB3]	2650 nM
